Reference: ChEMBL document CHEMBL3393039, “Anthranilic acid derivatives as nuclear receptor modulators--development of novel PPAR selective and dual PPAR/FXR ligands” (Bioorg Med Chem, 2015)
≈ marks a conversion by molar mass, not a printed value. Calls of active or inactive are those of the source. The calls are words filed in the database; no cut-off is given here.

Key:
[1] = Aqueous solubility of the compound; format: physicochemical; settings: aqueous medium (not specified further)
[2] = Metabolic stability in Sprague-Dawley rat liver microsomes assessed as parent compound remaining at 10 uM measured after 15 mins in presence of NADPH regenerating system by HPLC method (reference value: 97.6 +/- 0.8%); format: ADME; settings: read-out: Stability
[3] = Metabolic stability in Sprague-Dawley rat liver microsomes assessed as parent compound remaining at 10 uM measured after 30 mins in presence of NADPH regenerating system by HPLC method (reference value: 97.6 +/- 0.8%); format: ADME; settings: read-out: Stability
[4] = Metabolic stability in Sprague-Dawley rat liver microsomes assessed as parent compound remaining at 10 uM measured after 60 mins in presence of NADPH regenerating system by HPLC method (reference value: 97.6 +/- 0.8%); format: ADME; settings: read-out: Stability
[5] = molecular target: PPAR delta/gamma (Homo sapiens) (UniProt P37231+Q03181); test: Selectivity index, ratio of EC50 for Gal4-tagged PPARgamma ligand binding domain (unknown origin) to EC50 for Gal4-tagged PPARdelta ligand binding domain (unknown origin)
[6] = molecular target: T1, Peroxisome proliferator-activated receptor alpha (Homo sapiens, UniProt Q07869); test: Transactivation of Gal4-tagged PPARalpha ligand binding domain (unknown origin) expressed in COS7 cells measured after overnight incubation by luciferase reporter gene assay; format: cell-based, COS-7
T1 sequence (Q07869 whole entry): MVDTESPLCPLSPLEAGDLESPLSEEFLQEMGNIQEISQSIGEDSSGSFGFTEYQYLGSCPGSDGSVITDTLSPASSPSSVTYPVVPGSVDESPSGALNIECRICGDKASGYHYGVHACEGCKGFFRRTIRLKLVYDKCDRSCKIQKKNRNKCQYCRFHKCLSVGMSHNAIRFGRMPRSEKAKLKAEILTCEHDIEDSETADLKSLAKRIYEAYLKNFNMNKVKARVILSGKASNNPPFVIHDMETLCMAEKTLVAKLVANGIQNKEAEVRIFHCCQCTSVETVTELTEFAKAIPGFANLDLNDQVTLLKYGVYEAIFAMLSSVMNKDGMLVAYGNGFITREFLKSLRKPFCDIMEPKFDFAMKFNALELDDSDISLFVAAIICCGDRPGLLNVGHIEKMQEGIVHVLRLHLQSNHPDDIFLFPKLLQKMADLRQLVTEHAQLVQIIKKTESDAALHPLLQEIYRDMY

[7] = molecular target: T2, Peroxisome proliferator-activated receptor gamma (Homo sapiens, UniProt P37231); test: Transactivation of Gal4-tagged PPARgamma ligand binding domain (unknown origin) expressed in COS7 cells measured after overnight incubation by luciferase reporter gene assay; format: cell-based, COS-7
T2 sequence (P37231 whole entry): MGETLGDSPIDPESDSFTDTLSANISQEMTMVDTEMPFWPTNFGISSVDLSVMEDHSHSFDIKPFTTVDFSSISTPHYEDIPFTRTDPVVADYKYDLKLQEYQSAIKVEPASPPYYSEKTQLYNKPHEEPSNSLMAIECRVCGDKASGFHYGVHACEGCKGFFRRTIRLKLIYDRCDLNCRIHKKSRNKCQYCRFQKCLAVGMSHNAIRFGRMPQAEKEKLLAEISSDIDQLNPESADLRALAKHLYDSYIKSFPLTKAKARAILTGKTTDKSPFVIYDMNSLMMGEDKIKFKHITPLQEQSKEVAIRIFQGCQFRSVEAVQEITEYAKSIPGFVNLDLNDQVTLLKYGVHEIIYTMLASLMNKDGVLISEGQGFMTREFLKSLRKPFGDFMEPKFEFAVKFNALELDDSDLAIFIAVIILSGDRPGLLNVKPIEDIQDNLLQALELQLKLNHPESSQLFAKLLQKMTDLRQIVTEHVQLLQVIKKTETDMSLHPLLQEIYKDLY

[8] = molecular target: T3, Peroxisome proliferator-activated receptor gamma (Homo sapiens) (UniProt P37231); test: Transactivation of Gal4-tagged PPARgamma ligand binding domain (unknown origin) expressed in COS7 cells measured after overnight incubation by luciferase reporter gene assay relative to piaglitazone; format: cell-based; settings: Chlorocebus aethiops; COS-7
T3 sequence (whole entry): T2 sequence (P37231 whole entry)

[9] = molecular target: T4, Peroxisome proliferator-activated receptor delta (Homo sapiens, UniProt Q03181); test: Transactivation of Gal4-tagged PPARdelta ligand binding domain (unknown origin) expressed in COS7 cells measured after overnight incubation by luciferase reporter gene assay; format: cell-based, COS-7
T4 sequence (Q03181 whole entry): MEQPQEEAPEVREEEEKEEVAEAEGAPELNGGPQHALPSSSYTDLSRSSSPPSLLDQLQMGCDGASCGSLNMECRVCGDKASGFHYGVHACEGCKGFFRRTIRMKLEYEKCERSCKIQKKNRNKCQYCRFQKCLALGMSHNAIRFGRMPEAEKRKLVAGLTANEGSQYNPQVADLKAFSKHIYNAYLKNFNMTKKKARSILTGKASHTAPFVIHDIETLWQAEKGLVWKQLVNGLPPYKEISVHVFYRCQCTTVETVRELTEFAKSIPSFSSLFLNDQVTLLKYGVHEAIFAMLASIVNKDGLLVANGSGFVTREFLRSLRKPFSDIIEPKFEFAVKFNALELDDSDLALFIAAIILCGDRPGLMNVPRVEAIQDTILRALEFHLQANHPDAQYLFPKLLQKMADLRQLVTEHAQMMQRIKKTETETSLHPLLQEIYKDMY

[10] = molecular target: T5, Peroxisome proliferator-activated receptor delta (Homo sapiens) (UniProt Q03181); test: Transactivation of Gal4-tagged PPARdelta ligand binding domain (unknown origin) expressed in COS7 cells measured after overnight incubation by luciferase reporter gene assay relative to L165,041; format: cell-based; settings: Chlorocebus aethiops; COS-7
T5 sequence (whole entry): T4 sequence (Q03181 whole entry)

[11] = molecular target: T6, Bile acid receptor (Homo sapiens) (UniProt Q96RI1); test: Transactivation of human FXR expressed in human HeLa cells incubated for 24 hrs by luciferase reporter gene assay relative to GW4064; format: cell-based
T6 sequence (whole entry): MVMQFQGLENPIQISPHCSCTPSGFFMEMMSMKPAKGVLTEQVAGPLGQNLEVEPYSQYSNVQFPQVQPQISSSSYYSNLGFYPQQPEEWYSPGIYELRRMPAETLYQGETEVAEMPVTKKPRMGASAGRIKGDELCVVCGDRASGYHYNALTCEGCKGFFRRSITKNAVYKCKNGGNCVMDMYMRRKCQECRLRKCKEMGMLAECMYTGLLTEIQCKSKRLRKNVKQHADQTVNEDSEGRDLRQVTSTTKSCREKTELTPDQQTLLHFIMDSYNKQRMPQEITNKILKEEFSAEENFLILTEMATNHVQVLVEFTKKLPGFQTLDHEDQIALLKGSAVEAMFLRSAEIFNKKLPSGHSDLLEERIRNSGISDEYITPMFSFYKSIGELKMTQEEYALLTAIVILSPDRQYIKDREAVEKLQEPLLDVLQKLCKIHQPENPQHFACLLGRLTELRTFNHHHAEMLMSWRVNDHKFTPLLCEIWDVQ

Homo sapiens [12] = species on record: Homo sapiens; test: Selectivity index, ratio of EC50 for Gal4-tagged PPARalpha ligand binding domain (unknown origin) to EC50 for Gal4-tagged PPARdelta ligand binding domain (unknown origin)
[13] = Antiproliferative activity against human HepG2 cells assessed as cell viability at 5 uM after 48 hrs by WST1 assay (reference value: 100%); format: cell-based; settings: read-out: Activity
[14] = Antiproliferative activity against human HepG2 cells assessed as cell viability at 10 uM after 48 hrs by WST1 assay (reference value: 100%); format: cell-based; settings: read-out: Activity
[15] = Antiproliferative activity against human HepG2 cells assessed as cell viability at 50 uM after 48 hrs by WST1 assay (reference value: 100%); format: cell-based; settings: read-out: Activity
[16] = Cytotoxic activity against human HepG2 cells assessed as LDH release at 5 uM after 48 hrs by LDH release assay (reference value: 100%)
[17] = Cytotoxic activity against human HepG2 cells assessed as LDH release at 10 uM after 48 hrs by LDH release assay (reference value: 100%)
[18] = Cytotoxic activity against human HepG2 cells assessed as LDH release at 30 uM after 48 hrs by LDH release assay (reference value: 100%)
[19] = molecular target: T7, Peroxisome proliferator-activated receptor alpha (Homo sapiens) (UniProt Q07869); test: Transactivation of Gal4-tagged PPARalpha ligand binding domain (unknown origin) expressed in COS7 cells at 10 uM measured after overnight incubation by luciferase reporter gene assay; format: cell-based; settings: COS-7
T7 sequence (whole entry): T1 sequence (Q07869 whole entry)

[20] = molecular target: T5, Peroxisome proliferator-activated receptor delta (Homo sapiens); test: Transactivation of Gal4-tagged PPARdelta ligand binding domain (unknown origin) expressed in COS7 cells at 30 uM measured after overnight incubation by luciferase reporter gene assay; format: cell-based; settings: COS-7
[21] = molecular target: T6, Bile acid receptor (Homo sapiens); test: Antagonist activity against human FXR expressed in human HeLa cells incubated for 24 hrs by luciferase reporter gene assay; format: cell-based
Homo sapiens [22] = species on record: Homo sapiens; test: Selectivity index, ratio of EC50 for Gal4-tagged PPARgamma ligand binding domain (unknown origin) to EC50 for human FXR
Homo sapiens [23] = species on record: Homo sapiens; test: Selectivity index, ratio of EC50 for Gal4-tagged PPARalpha ligand binding domain (unknown origin) to EC50 for human FXR
Homo sapiens [24] = species on record: Homo sapiens; test: Selectivity index, ratio of EC50 for Gal4-tagged PPARdelta ligand binding domain (unknown origin) to EC50 for human FXR
Bile acid receptor = molecular target: T8, Bile acid receptor (Homo sapiens, UniProt Q96RI1); test: Transactivation of human FXR expressed in human HeLa cells incubated for 24 hrs by luciferase reporter gene assay; format: cell-based
T8 sequence (Q96RI1 whole entry): T6 sequence (whole entry)

Compound	solubility [1]	EC50 [6]	EC50 [7]	max activation [8]	EC50 [9]	max activation [10]	max activation [11]	viability at 48 h, 5 µM [13]	viability at 48 h, 10 µM [14]	viability at 48 h, 50 µM [15]	LDH release (% cytotoxicity) at 48 h, 5 µM [16]	LDH release (% cytotoxicity) at 48 h, 10 µM [17]	LDH release (% cytotoxicity) at 48 h, 30 µM [18]	max activation [19]	Activity [20]	EC50 (Bile acid receptor)	other results
O=C(O)Cc1cccc(NC(=O)c2ccccc2NC(=O)c2ccc3ccccc3c2)c1	6 µM (≈ 2.55 µg/mL)	14.4 µM	18 µM	335%	1.3 µM	147%	20.9%	99.5%	115%	89.3%	-2.4%	0.3%	23.3%	–	–	–	remaining at 0.25 h, 10 µM [2]: 91.4%; remaining at 0.5 h, 10 µM [3]: 82.3%; remaining at 1 h, 10 µM [4]: 80.5%; Ratio EC50 [5]: 13; Ratio EC50 (Homo sapiens [12]): 11
CC(C)(C)c1ccc(C(=O)Nc2ccc(Cl)cc2C(=O)Nc2cccc(C(=O)O)c2)cc1	–	–	5.4 µM	132%	–	–	–	–	–	–	–	–	–	18%	inactive	–	inhibition [21]: Active
CC(C)(C)c1ccc(C(=O)Nc2cc(Cl)ccc2C(=O)Nc2cccc(C(=O)O)c2)cc1	–	–	9 µM	256%	–	–	22%	–	–	–	–	–	–	44%	inactive	0.12 µM	Ratio EC50 (Homo sapiens [22]): 75; Ratio EC50 (Homo sapiens [23]): 100; Ratio EC50 (Homo sapiens [24]): 100
O=C(O)Cc1cccc(NC(=O)c2ccccc2NC(=O)c2ccc(-c3ccccc3)cc2)c1	1.7 µM (≈ 0.766 µg/mL)	3 µM	2.6 µM	125%	6.4 µM	175%	18.8%	96.5%	79.5%	33.6%	-4.5%	-1%	72.9%	–	–	0.7 µM	–
